This is an account of results in patent publication EP0707004A1, “1-Arylalcenyl 4-arylmethylpiperazinderivatives, process for their preparation and pharmaceutical composition containing them” (ADIR ET COMPAGNIE, priority 1994, dated 1996).

Structures are written as SMILES.

This test concerns hyperactivité induite par la N-allylnormétazocine. The experiment in a line: Antagonism of N-allylnormetazocine-induced hyperactivity. The class given is in vivo. The conditions noted are these: dose 32 mg.kg⁻¹; rats; N-allylnormetazocine 50 mg/kg subcutaneous. The text has this:
Ce test a été mis au point par Snyder S.H. et al (J. Neuropsychiatry, 1989, 1 : 7-15). La N-allylnormetazocine ((+) SKF 10047) induit un comportement psychotique chez l'homme et est le prototype d'agoniste pour les récepteurs σ.
La mesure de l'hyperactivité induite par ce produit est donc utilisée comme modèle alternatif pour détecter l'activité antipsychotique des composés agissant sur les récepteurs σ.
Un groupe de 12 rats est traité avec le composé à tester avant l'administration sous-cutanée de 50 mg/kg de la N-allylnormetazocine. 30 minutes plus tard, les animaux sont placés dans un actimètre pendant 30 minutes.
L'halopéridol est utilisé comme composé de référence.

For `CCC(=Cc1ccccc1)C(=O)N1CCN(Cc2ccccc2)CC1` [Exemple 9, 1-(3-phényl-2-éthylprop-2-ènoyl)-4-benzylpipérazine], the “antagonisme de l'hypermotilité induite par la N-allylnormétazocine” value came to 42%.
